Results: patent US20230165792A1, “LIQUID FORMULATION AND PHARMACEUTICAL PRODUCT CONTAINING CILASTATIN” (Denka Company Limited, priority 2020, published 2023)
Where two headings read alike, the source gives them in different places.

What was measured:
[1] = for Absorbance: 400 nm; for Cilastatin content: HPLC
Procedure: Then, the glass vial was sealed and heated at 80° C. for 4 hours (to obtain a nitrogen-purged, heated sample). The aqueous solution before heating and the two samples prepared above were measured for absorbance, which served as an index for the degree of coloration, and also analyzed by HPLC to confirm the content of cilastatin.
The analysis conditions are detailed below.
Absorbance Measurement Conditions:
Equipment: Hitachi U-3900
Optical path length: 1 cm
HPLC Analysis Conditions:
Detector: Ultraviolet absorptiometer (measurement wavelength: 216 nm)
Column: 1.7 μm octadecylsilylated silica gel column (Acquity BEH C18, produced by Waters), 2.1 mm I.D., 50 mm long
Column temperature: 40° C.
Mobile phase: 25 mM phosphate buffer containing 9.5% acetonitrile (pH 4.25)
Amount of sample injected: 5 μL (prepared to 100 μg/mL)
Retention time: Cilastatin (about 2.6 min.)

[2] = N2-purged headspace, heated 80° C. for 4 hours

appearance according to visual observation ([1]; 200 mg/mL aqueous solution): slightly yellow
pH at the time of preparation ([1]; 200 mg/mL aqueous solution): 6.79
Absorbance [1, 2]: 0.166
Cilastatin content [1, 2]: 99.15%
Absorbance ([1]; before heating, 200 mg/mL aqueous solution, optical path 1 cm): 0.040
Cilastatin content ([1]; before heating): 98.99%
Absorbance ([1]; heated sample: sealed glass vial, 80° C. for 4 hours): 0.203
content of cilastatin (after storage at 45° C.): decreased slightly
color of solution (after storage at 45° C. for 23 days): yellow
color of solution (after storage at 45° C. for 65 days): brown
color of solution (at the time of preparation, deionized water): slightly yellow
Structure (SMILES): CC1(C)C[C@@H]1C(=O)N/C(=C\CCCCSC[C@H](N)C(=O)O)C(=O)O [cilastatin sodium, (Z)-7-[[(R)-2-amino-2-carboxyethyl]thio]-2-[[[(S)-2,2-dimethylcyclopropyl]carbonyl]amino]-2-heptenoic acid]
